Test results as given in PMC2191316 (The Journal of Experimental Medicine, 1994).
Residues, ends and D or L forms follow the SMILES beside them.

Target: DRB5*0101 molecules (Homo sapiens, UniProt P01903+Q30154)
Assay: Inhibition of radiolabeled TT
Type: binding

Row | SMILES | IC50 [nM]
1 | CC[C@H](C)[C@H](NC(=O)[C@H](CC(N)=O)NC(=O)[C@H](CCCCN)NC(=O)[C@H](Cc1ccccc1)NC(=O)[C@H](Cc1ccccc1)NC(=O)[C@H](Cc1c[nH]cn1)NC(=O)[C@@H](NC(=O)[C@@H](NC(=O)[C@@H]1CCCN1C(=O)[C@H](CC(N)=O)NC(=O)[C@@H](N)CCC(=O)O)C(C)C)C(C)C)C(=O)N[C@H](C(=O)N[C@H](C(=O)N[C@@H](C)C(=O)N[C@@H](CCCNC(=N)N)C(=O)O)[C@@H](C)O)C(C)C [(85-99)98A] (H-ENPVVHFFKNIVTAR-OH) | 350
2 | CC[C@H](C)[C@H](NC(=O)[C@H](CC(N)=O)NC(=O)[C@H](CCCCN)NC(=O)[C@H](Cc1ccccc1)NC(=O)[C@H](Cc1ccccc1)NC(=O)[C@H](Cc1c[nH]cn1)NC(=O)[C@@H](NC(=O)[C@@H](NC(=O)[C@@H]1CCCN1C(=O)[C@H](CC(N)=O)NC(=O)[C@H](C)N)C(C)C)C(C)C)C(=O)N[C@H](C(=O)N[C@H](C(=O)N1CCC[C@H]1C(=O)N[C@@H](CCCNC(=N)N)C(=O)O)[C@@H](C)O)C(C)C [(85-99)85A] (H-ANPVVHFFKNIVTPR-OH) | 420
3 | CC[C@H](C)[C@H](NC(=O)[C@H](CC(N)=O)NC(=O)[C@H](CCCCN)NC(=O)[C@H](Cc1ccccc1)NC(=O)[C@H](Cc1ccccc1)NC(=O)[C@H](Cc1c[nH]cn1)NC(=O)[C@@H](NC(=O)[C@@H](NC(=O)[C@@H]1CCCN1C(=O)[C@H](C)NC(=O)[C@@H](N)CCC(=O)O)C(C)C)C(C)C)C(=O)N[C@H](C(=O)N[C@H](C(=O)N1CCC[C@H]1C(=O)N[C@@H](CCCNC(=N)N)C(=O)O)[C@@H](C)O)C(C)C [(85-99)86A] (H-EAPVVHFFKNIVTPR-OH) | 940
4 | CC[C@H](C)[C@H](NC(=O)[C@H](C)NC(=O)[C@H](CCCCN)NC(=O)[C@H](Cc1ccccc1)NC(=O)[C@H](Cc1ccccc1)NC(=O)[C@H](Cc1c[nH]cn1)NC(=O)[C@@H](NC(=O)[C@@H](NC(=O)[C@@H]1CCCN1C(=O)[C@H](CC(N)=O)NC(=O)[C@@H](N)CCC(=O)O)C(C)C)C(C)C)C(=O)N[C@H](C(=O)N[C@H](C(=O)N1CCC[C@H]1C(=O)N[C@@H](CCCNC(=N)N)C(=O)O)[C@@H](C)O)C(C)C [(85-99)94A] (H-ENPVVHFFKAIVTPR-OH) | 140
5 | CC[C@H](C)[C@H](NC(=O)[C@H](CC(N)=O)NC(=O)[C@H](CCCCN)NC(=O)[C@H](Cc1ccccc1)NC(=O)[C@H](Cc1ccccc1)NC(=O)[C@H](Cc1c[nH]cn1)NC(=O)[C@@H](NC(=O)[C@@H](NC(=O)[C@H](C)NC(=O)[C@H](CC(N)=O)NC(=O)[C@@H](N)CCC(=O)O)C(C)C)C(C)C)C(=O)N[C@H](C(=O)N[C@H](C(=O)N1CCC[C@H]1C(=O)N[C@@H](CCCNC(=N)N)C(=O)O)[C@@H](C)O)C(C)C [(85-99)87A] (H-ENAVVHFFKNIVTPR-OH) | 610
6 | CC(C)[C@H](NC(=O)[C@H](C)NC(=O)[C@H](CC(N)=O)NC(=O)[C@H](CCCCN)NC(=O)[C@H](Cc1ccccc1)NC(=O)[C@H](Cc1ccccc1)NC(=O)[C@H](Cc1c[nH]cn1)NC(=O)[C@@H](NC(=O)[C@@H](NC(=O)[C@@H]1CCCN1C(=O)[C@H](CC(N)=O)NC(=O)[C@@H](N)CCC(=O)O)C(C)C)C(C)C)C(=O)N[C@H](C(=O)N1CCC[C@H]1C(=O)N[C@@H](CCCNC(=N)N)C(=O)O)[C@@H](C)O [(85-99)95A] (H-ENPVVHFFKNAVTPR-OH) | 1100
7 | CC[C@H](C)[C@H](NC(=O)[C@H](CC(N)=O)NC(=O)[C@H](CCCCN)NC(=O)[C@H](Cc1ccccc1)NC(=O)[C@H](Cc1ccccc1)NC(=O)[C@H](Cc1c[nH]cn1)NC(=O)[C@H](C)NC(=O)[C@@H](NC(=O)[C@@H]1CCCN1C(=O)[C@H](CC(N)=O)NC(=O)[C@@H](N)CCC(=O)O)C(C)C)C(=O)N[C@H](C(=O)N[C@H](C(=O)N1CCC[C@H]1C(=O)N[C@@H](CCCNC(=N)N)C(=O)O)[C@@H](C)O)C(C)C [(85-99)89A] (H-ENPVAHFFKNIVTPR-OH) | 690
8 | CC[C@H](C)[C@H](NC(=O)[C@H](CC(N)=O)NC(=O)[C@H](CCCCN)NC(=O)[C@H](Cc1ccccc1)NC(=O)[C@H](Cc1ccccc1)NC(=O)[C@H](Cc1c[nH]cn1)NC(=O)[C@@H](NC(=O)[C@@H](NC(=O)[C@@H]1CCCN1C(=O)[C@H](CC(N)=O)NC(=O)[C@@H](N)CCC(=O)O)C(C)C)C(C)C)C(=O)N[C@H](C(=O)N[C@H](C(=O)N1CCC[C@H]1C(=O)N[C@@H](C)C(=O)O)[C@@H](C)O)C(C)C [(85-99)99A] (H-ENPVVHFFKNIVTPA-OH) | 2300
9 | CC[C@H](C)[C@H](NC(=O)[C@H](CC(N)=O)NC(=O)[C@H](C)NC(=O)[C@H](Cc1ccccc1)NC(=O)[C@H](Cc1ccccc1)NC(=O)[C@H](Cc1c[nH]cn1)NC(=O)[C@@H](NC(=O)[C@@H](NC(=O)[C@@H]1CCCN1C(=O)[C@H](CC(N)=O)NC(=O)[C@@H](N)CCC(=O)O)C(C)C)C(C)C)C(=O)N[C@H](C(=O)N[C@H](C(=O)N1CCC[C@H]1C(=O)N[C@@H](CCCNC(=N)N)C(=O)O)[C@@H](C)O)C(C)C [(85-99)93A] (H-ENPVVHFFANIVTPR-OH) | 2900
10 | CC[C@H](C)[C@H](NC(=O)[C@H](CC(N)=O)NC(=O)[C@H](CCCCN)NC(=O)[C@H](Cc1ccccc1)NC(=O)[C@H](Cc1ccccc1)NC(=O)[C@H](Cc1c[nH]cn1)NC(=O)[C@@H](NC(=O)[C@H](C)NC(=O)[C@@H]1CCCN1C(=O)[C@H](CC(N)=O)NC(=O)[C@@H](N)CCC(=O)O)C(C)C)C(=O)N[C@H](C(=O)N[C@H](C(=O)N1CCC[C@H]1C(=O)N[C@@H](CCCNC(=N)N)C(=O)O)[C@@H](C)O)C(C)C [(85-99)88A] (H-ENPAVHFFKNIVTPR-OH) | 945
11 | CC[C@H](C)[C@H](NC(=O)[C@H](CC(N)=O)NC(=O)[C@H](CCCCN)NC(=O)[C@H](C)NC(=O)[C@H](Cc1ccccc1)NC(=O)[C@H](Cc1c[nH]cn1)NC(=O)[C@@H](NC(=O)[C@@H](NC(=O)[C@@H]1CCCN1C(=O)[C@H](CC(N)=O)NC(=O)[C@@H](N)CCC(=O)O)C(C)C)C(C)C)C(=O)N[C@H](C(=O)N[C@H](C(=O)N1CCC[C@H]1C(=O)N[C@@H](CCCNC(=N)N)C(=O)O)[C@@H](C)O)C(C)C [(85-99)92A] (H-ENPVVHFAKNIVTPR-OH) | 8200
12 | CC[C@H](C)[C@H](NC(=O)[C@H](CC(N)=O)NC(=O)[C@H](CCCCN)NC(=O)[C@H](Cc1ccccc1)NC(=O)[C@H](Cc1ccccc1)NC(=O)[C@H](C)NC(=O)[C@@H](NC(=O)[C@@H](NC(=O)[C@@H]1CCCN1C(=O)[C@H](CC(N)=O)NC(=O)[C@@H](N)CCC(=O)O)C(C)C)C(C)C)C(=O)N[C@H](C(=O)N[C@H](C(=O)N1CCC[C@H]1C(=O)N[C@@H](CCCNC(=N)N)C(=O)O)[C@@H](C)O)C(C)C [(85-99)90A] (H-ENPVVAFFKNIVTPR-OH) | 640
13 | CC[C@H](C)[C@H](NC(=O)[C@H](CC(N)=O)NC(=O)[C@H](CCCCN)NC(=O)[C@H](Cc1ccccc1)NC(=O)[C@H](Cc1ccccc1)NC(=O)[C@H](Cc1c[nH]cn1)NC(=O)[C@@H](NC(=O)[C@@H](NC(=O)[C@@H]1CCCN1C(=O)[C@H](CC(N)=O)NC(=O)[C@@H](N)CCC(=O)O)C(C)C)C(C)C)C(=O)N[C@@H](C)C(=O)N[C@H](C(=O)N1CCC[C@H]1C(=O)N[C@@H](CCCNC(=N)N)C(=O)O)[C@@H](C)O [(85-99)96A] (H-ENPVVHFFKNIATPR-OH) | 730
14 | CC[C@H](C)[C@H](NC(=O)[C@H](CC(N)=O)NC(=O)[C@H](CCCCN)NC(=O)[C@H](Cc1ccccc1)NC(=O)[C@H](Cc1ccccc1)NC(=O)[C@H](Cc1c[nH]cn1)NC(=O)[C@@H](N)C(C)C)C(=O)N[C@H](C(=O)N[C@H](C(=O)N1CCC[C@H]1C(=O)N[C@@H](CCCNC(=N)N)C(=O)O)[C@@H](C)O)C(C)C [(89-99)] (H-VHFFKNIVTPR-OH) | 1200
15 | CC[C@H](C)[C@H](NC(=O)[C@H](CC(N)=O)NC(=O)[C@H](CCCCN)NC(=O)[C@H](Cc1ccccc1)NC(=O)[C@H](C)NC(=O)[C@H](Cc1c[nH]cn1)NC(=O)[C@@H](NC(=O)[C@@H](NC(=O)[C@@H]1CCCN1C(=O)[C@H](CC(N)=O)NC(=O)[C@@H](N)CCC(=O)O)C(C)C)C(C)C)C(=O)N[C@H](C(=O)N[C@H](C(=O)N1CCC[C@H]1C(=O)N[C@@H](CCCNC(=N)N)C(=O)O)[C@@H](C)O)C(C)C [(85-99)91A] (H-ENPVVHAFKNIVTPR-OH) | 1300
16 | CC[C@H](C)[C@H](NC(=O)[C@H](CC(N)=O)NC(=O)[C@H](CCCCN)NC(=O)[C@H](Cc1ccccc1)NC(=O)[C@H](Cc1ccccc1)NC(=O)[C@H](Cc1c[nH]cn1)NC(=O)[C@@H](NC(=O)[C@@H](NC(=O)[C@@H]1CCCN1C(=O)[C@H](CC(N)=O)NC(=O)[C@H](CCC(=O)O)NC(=O)[C@@H](N)CC(=O)O)C(C)C)C(C)C)C(=O)N[C@H](C(=O)N[C@H](C(=O)N1CCC[C@H]1C(=O)N[C@@H](CCCNC(=N)N)C(=O)N[C@H](C(=O)N1CCC[C@H]1C(=O)N1CCC[C@H]1C(=O)O)[C@@H](C)O)[C@@H](C)O)C(C)C [(84-102)] | 55
